Test system: Mus musculus
Assay: Anticonvulsant activity in ip dosed Kunming mouse assessed as protection against 50 mA current-induced seizure measured after 0.5 hrs by maximal electroshock seizure test
Assay type: functional

FC(F)(F)c1cccc(COc2nn3cnnc3c3ccccc23)c1 gave an ED50 of 9.3 mg/kg.

Source: ChEMBL document CHEMBL4354803, “Synthesis and biological activity of structurally diverse phthalazine derivatives: A systematic review” (Bioorg Med Chem, 2019)
